Experimental data taken from publication PMC12860872, “Preclinical evaluation of DOTAGA.Glu.(FAPI)2 and DO3A.Glu.(FAPI)2 as theranostics with human dosimetry extrapolation to lutetium-177 and terbium-161 analogs” (European Journal of Nuclear Medicine and Molecular Imaging, 2025).
Several values for one entry are separate records, joined by “and”; a condition that tells them apart may be missing. Equal values may be shown once.

Experiment: Extrapolated human dosimetry (OLINDA/EXM, ICRP-89 phantoms)
Description: To address inter-animal variability, the TIACs for each source organ were calculated from both the mean nTACs and the nTACs obtainend from fitting the mean ± 1 standard deviation (SD) of the normalized time-activity data, providing upper and lower bounds.
The mice-to-human TIAC extrapolation accounted for species-specific differences in relative source organ masses, m(organ), as compared to the total body weight (WB), for the mice (m) and human (h) models respectively.
(§1) The human organ masses, m(organ)h, were obtained from ICRP-89 adult male and female reference phantoms, while the murine organ masses, m(organ)m, were derived from the standard MOBY mouse model. The extrapolated human TIACs, TIACh were entered in the OLINDA/EXM software to compute the absorbed doses to target organs and the effective dose for adult male, female, and gender-averaged human models. […]
The TIACs, for [177Lu]Lu-DOTAGA.Glu.(FAPI)2 and [177Lu]Lu-DO3A.Glu.(FAPI)2, were determined by time integration of the nTACs. To account for the inter-animal variability, the TIACs for each source organ were calculated using both the mean nTACs and the nTACs obtainend from fitting the mean ±1 standard deviation (SD) of the normalized time-activity data. This approach provided the upper and the lower bounds for the estimated TIACs.
The mice-to-human TIAC extrapolation was obtained considering the different (species-specific) relative source organ masses, m(organ), as compared to the total body weight (WB), for the mice (m) and human (h) models respectively.
as §1, with “the” for “ICRP-89”, “models phantoms defined in ICRP-89,” for “phantoms,”, “TIACs values, TIACh, for each source organ” for “TIACs, TIACh”, “input into the kinetic module of” for “entered in”, “software (version 2.1, HERMES Medical Solutions AB, Stockholm, Sweden)” for “software”

[1] = ICRP 89 Adult Female, extrapolated
[2] = ICRP 89 Adult Male, extrapolated

Absorbed dose (AD average) Adrenals [1]: 2.06E-02 mGy/Mbq
Absorbed dose (AD average) Brain [1]: 4.11E-02 mGy/Mbq
Absorbed dose (AD average) Breasts [1]: 3.94E-02 mGy/Mbq
Absorbed dose (AD average) Esophagus [1]: 4.21E-02 mGy/Mbq
Absorbed dose (AD average) Eyes [1]: 4.11E-02 mGy/Mbq
Absorbed dose (AD average) Gallbladder Wall [1]: 4.47E-02 mGy/Mbq
Absorbed dose (AD average) Heart Wall [1]: 6.03E-02 mGy/Mbq
Absorbed dose (AD average) Left colon [1]: 4.20E-02 mGy/Mbq
Absorbed dose (AD average) Ovaries [1]: 4.17E-02 mGy/Mbq
Absorbed dose (AD average) Rectum [1]: 4.17E-02 mGy/Mbq
Absorbed dose (AD average) Right colon [1]: 4.24E-02 mGy/Mbq
Absorbed dose (AD average) Small Intestine [1]: 4.17E-02 mGy/Mbq
Absorbed dose (AD average) Stomach Wall [1]: 4.21E-02 mGy/Mbq
Absorbed dose (AD average) Thymus [1]: 4.16E-02 mGy/Mbq
Absorbed dose (AD average) Thyroid [1]: 4.05E-02 mGy/Mbq
Absorbed dose (AD average) Urinary Bladder Wall [1]: 4.10E-02 mGy/Mbq
Absorbed dose (AD average) Uterus [1]: 4.14E-02 mGy/Mbq
Effective dose (average) [1]: 5.28E-02
Absorbed dose (AD average) Adrenals [2]: 1.63E-02 mGy/Mbq
Absorbed dose (AD average) Brain [2]: 2.76E-02 mGy/Mbq
Absorbed dose (AD average) Esophagus [2]: 2.88E-02 mGy/Mbq
Absorbed dose (AD average) Eyes [2]: 2.76E-02 mGy/Mbq
Absorbed dose (AD average) Gallbladder Wall [2]: 3.50E-02 mGy/Mbq
Absorbed dose (AD average) Heart Wall [2]: 5.00E-02 mGy/Mbq
Absorbed dose (AD average) Left colon [2]: 1.18E-01 mGy/Mbq
Absorbed dose (AD average) Prostate [2]: 2.77E-02 mGy/Mbq
Absorbed dose (AD average) Rectum [2]: 1.17E-01 mGy/Mbq
Absorbed dose (AD average) Right colon [2]: 7.38E-02 mGy/Mbq
Absorbed dose (AD average) Stomach Wall [2]: 4.15E-02 mGy/Mbq
Absorbed dose (AD average) Testes [2]: 2.65E-02 mGy/Mbq
Absorbed dose (AD average) Thymus [2]: 2.77E-02 mGy/Mbq
Absorbed dose (AD average) Thyroid [2]: 2.76E-02 mGy/Mbq
Absorbed dose (AD average) Urinary Bladder Wall [2]: 2.75E-02 mGy/Mbq
Effective dose (average) (ICRP 89 Adult Male, extrapolated, in mSv/MBq (unit assumed)): 4.69E-02
higher tissue doses vs. the 177Lu-labeled analogs (human extrapolation, average over tissues): ~ 38%
Structure (SMILES): N#C[C@@H]1CC(F)(F)CN1C(=O)CNC(=O)c1ccnc2ccc(OCCCCNC(=O)CC[C@H](NC(=O)CCC(C(=O)O)N3CCN(CC(=O)[O-])CCN(CC(=O)[O-])CCN(CC(=O)[O-])CC3)C(=O)NCCCCOc3ccc4nccc(C(=O)NCC(=O)N5CC(F)(F)C[C@H]5C#N)c4c3)cc12.[161Tb+3] (stereo partly drawn) [[^161Tb]Tb-DOTAGA.Glu.(FAPI)2]
Absorbed dose (AD average) Kidneys [1]: 6.83E-02 ± 0.003 mGy/Mbq and 6.83E-02 mGy/Mbq
Absorbed dose (AD average) Liver [1]: 2.78E-01 ± 0.02 mGy/Mbq and 2.78E-01 mGy/Mbq
Absorbed dose (AD average) Lungs [1]: 6.37E-02 ± 0.01 mGy/Mbq and 6.37E-02 mGy/Mbq
Absorbed dose (AD average) Osteogenic Cells [1]: 1.23E-01 ± 0.01 mGy/Mbq and 1.23E-01 mGy/Mbq
Absorbed dose (AD average) Pancreas [1]: 5.34E-02 ± 0.003 mGy/Mbq and 5.34E-02 mGy/Mbq
Absorbed dose (AD average) Red Marrow [1]: 4.59E-02 ± 0.01 mGy/Mbq and 4.59E-02 mGy/Mbq
Absorbed dose (AD average) Salivary Glands [1]: 1.73E-01 ± 0.01 mGy/Mbq and 1.73E-01 mGy/Mbq
Absorbed dose (AD average) Spleen [1]: 4.83E-02 ± 0.01 mGy/Mbq and 4.83E-02 mGy/Mbq
Absorbed dose (AD average) Total Body [1]: 6.01E-02 ± 0.01 mGy/Mbq and 6.01E-02 mGy/Mbq
Absorbed dose (AD average) Kidneys [2]: 5.60E-02 ± 0.002 mGy/Mbq and 5.60E-02 mGy/Mbq
Absorbed dose (AD average) Liver [2]: 2.29E-01 ± 0.02 mGy/Mbq and 2.29E-01 mGy/Mbq
Absorbed dose (AD average) Lungs [2]: 5.19E-02 ± 0.004 mGy/Mbq and 5.19E-02 mGy/Mbq
Absorbed dose (AD average) Osteogenic Cells [2]: 1.24E-01 ± 0.01 mGy/Mbq and 1.24E-01 mGy/Mbq
Absorbed dose (AD average) Pancreas [2]: 4.25E-02 ± 0.002 mGy/Mbq and 4.25E-02 mGy/Mbq
Absorbed dose (AD average) Red Marrow [2]: 3.37E-02 ± 0.003 mGy/Mbq and 3.37E-02 mGy/Mbq
Absorbed dose (AD average) Salivary Glands [2]: 1.43E-01 ± 0.01 mGy/Mbq and 1.43E-01 mGy/Mbq
Absorbed dose (AD average) Small Intestine [2]: 5.69E-02 ± 0.02 mGy/Mbq and 5.69E-02 mGy/Mbq
Absorbed dose (AD average) Spleen [2]: 3.92E-02 ± 0.01 mGy/Mbq and 3.92E-02 mGy/Mbq
Absorbed dose (AD average) Total Body [2]: 4.51E-02 ± 0.01 mGy/Mbq and 4.51E-02 mGy/Mbq
